# Measured values as given in PubChem BioAssay (NCI).
#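 Five concentrations, 48 hours, 96-well plates. Definition used: TGI = concentration required for complete inhibition of growth.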
# Assays:
# Assay in all cases: NCI anticancer screen, dose series, 48 h
# OVCAR-8 ovarian = system: OVCAR-8 ovarian
# RPMI-8226 leukemia = system: RPMI-8226 leukemia
# SNB-75 CNS = system: SNB-75 CNS
# DLD-1 colon = system: DLD-1 colon
# DMS 114 small cell lung = system: DMS 114 small cell lung
# DMS 273 small cell lung = system: DMS 273 small cell lung
# HOP-18 NSCLC = system: HOP-18 NSCLC
# KM20L2 colon = system: KM20L2 colon
# LXFL 529 NSCLC = system: LXFL 529 NSCLC
# M19-MEL melanoma = system: M19-MEL melanoma
# SNB-78 CNS = system: SNB-78 CNS
# XF 498 CNS = system: XF 498 CNS
Structure (SMILES),TGI (OVCAR-8 ovarian),TGI (RPMI-8226 leukemia),TGI (SNB-75 CNS),further results
C/C1=C/C[C@@H](/C(C)=C/c2csc(C)n2)OC(=O)C[C@H](O)C(C)(C)C(=O)[C@H](C)[C@@H](O)[C@@H](C)CCC1,0.295 µM,0.217 µM,–,–
CN1CC=C(c2cccn2C)CC1,> 100 µM,> 100 µM,> 100 µM,–
O=C(CCN1CCC(CCO)CC1)Nc1ccc2c(c1)C(=O)c1ccc(NC(=O)CCN3CCC(CCO)CC3)cc1C2=O,61.6 µM,88.1 µM,64.2 µM,TGI (DLD-1 colon): 22.2 µM; TGI (DMS 114 small cell lung): 21.7 µM; TGI (DMS 273 small cell lung): 19.8 µM; TGI (HOP-18 NSCLC): 80.1 µM; TGI (KM20L2 colon): 77.8 µM; TGI (LXFL 529 NSCLC): 19.8 µM; TGI (M19-MEL melanoma): > 100 µM; TGI (SNB-78 CNS): 21.6 µM
CC[C@@H]1CC[C@@H]2[C@H](CC[C@]3(C)[C@@H](OC(C)=O)CC[C@@H]23)[C@H]1C(=O)OC,76.9 µM,46.5 µM,69 µM,–
O=C(CCc1ccc(O)c(O)c1)NCCc1cc(O)c(O)c(O)c1,36.2 µM,> 100 µM,> 100 µM,–
Cc1cnc2c(c1)C(=O)N(c1ccc([N+](=O)[O-])cc1)S2(=O)=O,> 100 µM,> 100 µM,> 100 µM,–
CCCCCCCc1cscc1-c1cscc1Br,> 100 µM,47 µM,87 µM,–
c1ccc2nn(C3CCCO3)nc2c1 (centres undefined),> 100 µM,–,> 100 µM,–
CC(C)CC(NC=O)C(=O)NC(Cc1ccccc1)NC(=O)CNC(=O)C(C)NC(=O)C(N)Cc1ccc(O)cc1 (centres undefined),> 100 µM,> 100 µM,> 100 µM,–
Cc1c2ccccc2c(C2C3C(=O)N(c4cccc5ccccc45)C(=O)C3ON2Cc2ccc(CC(N)=O)cc2)c2ccccc12 (centres undefined),> 50 µM,–,43.5 µM,–
C(=N\NC1=NCCN1)/c1cccc2cc3ccncc3nc12,5.15 µM,4.44 µM,5.04 µM,–
CCOC(=O)Nc1n[nH]nc1Cl,> 100 µM,> 100 µM,> 100 µM,–
C=CC(OC(=O)C(C)C)c1ccc(OC(=O)C(C)C)cc1 (centres undefined),31.4 µM,11.7 µM,28.6 µM,–
CCCCCCCCCCCCCCCC(=O)Nc1ccn(C2CCC(COP(=O)(O)OCC3OC(n4cc(F)c(=O)[nH]c4=O)CC3OC(C)=O)O2)c(=O)n1 (centres undefined),> 72.2 µM,52.9 µM,> 67.1 µM,–
COc1cc2cc3c4cc(OC)c(OC)cc4cc[n+]3c(C)c2cc1OC,> 100 µM,> 100 µM,45.7 µM,–
O=C(Oc1c(Br)cc(Br)cc1C(=O)Oc1ccccc1)C(=O)Oc1c(Br)cc(Br)cc1C(=O)Oc1ccccc1,> 100 µM,52.9 µM,–,–
O=C(O)c1cccc(OCCOc2cccc(C(=O)O)c2[N+](=O)[O-])c1[N+](=O)[O-],> 100 µM,> 100 µM,> 100 µM,–
c1ccc2cc(CNCCCCNCCCNCc3ccc4ccccc4c3)ccc2c1,3.2 µM,0.712 µM,2.95 µM,–
COc1cc2c(cc1O)Cc1c-2[n+](C)cc2cc(OC)c(OC)cc12,> 100 µM,> 100 µM,> 100 µM,–
CC(=O)OCC1OC(OC(C)=O)C(Nc2ncc(-c3ccc(C)cc3)s2)C(OC(C)=O)C1OC(C)=O (centres undefined),69.9 µM,64.3 µM,37.6 µM,–

Structure (SMILES),TGI (OVCAR-8 ovarian),TGI (RPMI-8226 leukemia),TGI (SNB-75 CNS),further results
O=c1oc2ccc3ccccc3c2cc1-c1cn2c(n1)sc1ccccc12,> 100 µM,> 100 µM,> 100 µM,–
Cc1ccc(C(=O)N2CCCCC2)cc1N=NN(C)C,> 100 µM,> 100 µM,> 100 µM,TGI (DLD-1 colon): > 100 µM; TGI (DMS 114 small cell lung): > 100 µM; TGI (DMS 273 small cell lung): > 100 µM; TGI (LXFL 529 NSCLC): > 100 µM; TGI (M19-MEL melanoma): > 100 µM
C=C1CC(C)(COc2cc(=O)oc3ccccc23)OC1=O (centres undefined),24.2 µM,4.18 µM,21.3 µM,–
CN(C)CCN(C)C(=O)C1CCCN1C(=O)OCc1ccccc1 (centres undefined),> 100 µM,> 100 µM,> 100 µM,TGI (DLD-1 colon): > 100 µM; TGI (DMS 114 small cell lung): > 100 µM; TGI (DMS 273 small cell lung): > 100 µM; TGI (KM20L2 colon): > 100 µM; TGI (LXFL 529 NSCLC): > 100 µM; TGI (M19-MEL melanoma): > 100 µM; TGI (SNB-78 CNS): > 100 µM; TGI (XF 498 CNS): > 100 µM
O=c1nc2c(c(-c3ccc(F)cc3)[nH]1)COC/C2=C\c1ccc(F)cc1,> 100 µM,> 100 µM,> 100 µM,–
CCOC(=O)C1=CNC(C(=O)OCC)C1c1cccn1-c1ccccc1 (centres undefined),> 100 µM,–,65.4 µM,–
CC(C)COP(C)(=O)C(N)(C(F)(F)F)C(F)(F)F (centres undefined),> 100 µM,> 100 µM,> 100 µM,–
Cc1c(-c2nc(N)c(C#N)c(N)c2C#N)c(=O)oc2ccccc12,> 100 µM,62.4 µM,> 100 µM,–
Cc1ccc(S(=O)(=O)ON2C(=O)c3c(N)c(C#N)c(-c4ccccc4)c(-c4ccccc4)c3C2=O)cc1,46 µM,89.6 µM,> 100 µM,–
Cc1cc(C)c(S(=O)(=O)N(CCCN)OCCON(CCCN)S(=O)(=O)c2c(C)cc(C)cc2C)c(C)c1,47.7 µM,6.33 µM,12.6 µM,–
O=C(/C=C/c1ccc(O)c(O)c1)NC(COC(=O)/C=C/c1ccc(O)c(O)c1)C(=O)O (centres undefined),> 100 µM,> 100 µM,> 100 µM,–
Cc1ccc(SCC(CF)OC(C)n2cnc3c(Cl)nc(N)nc32)cc1 (centres undefined),> 100 µM,> 100 µM,> 100 µM,–
Nc1nc(Br)nc2ncn(C3CC(O)C(CO)O3)c12 (centres undefined),> 100 µM,> 100 µM,> 100 µM,–
CCCCOC(=O)NC(Nc1ccc(S(=O)(=O)Nc2ncccn2)cc1)(C(F)(F)F)C(F)(F)F,> 100 µM,> 100 µM,–,–
S=C(Nc1ccc2c(c1)oc1ccccc12)c1cccs1,> 100 µM,–,–,–
O=C1Oc2cc3c(c4cccc1c24)OCN(c1ccccc1)C3,> 100 µM,> 100 µM,> 100 µM,TGI (DLD-1 colon): > 100 µM; TGI (DMS 114 small cell lung): > 100 µM; TGI (DMS 273 small cell lung): > 100 µM; TGI (KM20L2 colon): > 100 µM; TGI (LXFL 529 NSCLC): > 100 µM; TGI (M19-MEL melanoma): > 100 µM; TGI (XF 498 CNS): > 100 µM
[N-]=[N+]=CC(=O)OCC1NC(=O)C(COC(=O)C=[N+]=[N-])NC1=O (centres undefined),> 100 µM,> 100 µM,> 100 µM,–
COc1ccc(NS(=O)c2c(C)cc(C)cc2C)cc1 (centres undefined),> 100 µM,> 100 µM,–,–
CCC(c1ccc(OC)cc1)C1NC(=S)NC1=O (centres undefined),> 50 µM,> 50 µM,> 50 µM,–
Cn1nc(-c2ccccc2)c2c(-c3ccccc3)c3cc(Cl)ccc3nc21,> 100 µM,> 100 µM,> 100 µM,–
